Measured values published in patent publication US12115250B2, “Use of nanoparticles for treating respiratory infections associated with cystic fibrosis” (EVOQ NANO, INC., priority 2019, dated 2024).

Experiments:
E. coli ATCC #51813 = assay: Antibacterial efficacy test, Relative Light Unit (RLU) counts (ATP); type: cell-based
Method: The NIST nanoparticles are formed by a chemical reduction process that utilizes citrate as reducing and capping agent.
Relative Light Unit (RLU) counts were recorded at 12 hours and 24 hours post treatment. RLU measurements were carried out using a Hygiena SystemSURE Plus V.2 SN067503 RLU meter with Hygenia AquaSnap TOTAL ATP Water Test Cat #U143 Lot #153019. Culturing media was Hardy Diagnostics Buffered Peptone Water Lot #118272. Samples were prepared with the nanoparticle treatments and then diluted with the media to provide the tested concentrations. The test organism (Microbiologics, E. coli, KwikStik, ATCC #51813, Ref #0791 K, Lot #791-1-6) was incubated in fresh Buffered Peptone Water growth media for 24 hours prior to exposure to the nanoparticle treatments.

[1] = Efficacy test comparing Attostat Ag to tobramycin (colony reduction); type: cell-based; details: 4 μg/mL Attostat Ag vs 20 μg/mL tobramycin
Method: Efficacy tests similar to those of Examples 5 and 6 were performed to compare the efficacy of Attostat Ag to tobramycin. […]

Row | Compound | RLU Counts at 12 Hours Post Exposure (E. coli ATCC #51813; 0.25 ppm (mg/L)) [RLU] | RLU Counts at 24 Hours Post Exposure (E. coli ATCC #51813; 0.25 ppm (mg/L)) [RLU] | RLU Counts at 12 Hours Post Exposure (E. coli ATCC #51813; 0.5 ppm (mg/L)) [RLU] | RLU Counts at 24 Hours Post Exposure (E. coli ATCC #51813; 0.5 ppm (mg/L)) [RLU] | RLU Counts at 12 Hours Post Exposure (E. coli ATCC #51813; 1.0 ppm (mg/L)) [RLU] | RLU Counts at 24 Hours Post Exposure (E. coli ATCC #51813; 1.0 ppm (mg/L)) [RLU] | colony reduction, comparison [1]
1 | O=[N+]([O-])[O-].[Ag+] [AgNO3 Silver Nitrate, silver nitrate] | 80 | 25 | 75 | 46 | 84 | 30 | –
2 | NC[C@H]1O[C@H](O[C@H]2[C@H](O)[C@@H](O[C@H]3O[C@H](CO)[C@@H](O)[C@H](N)[C@H]3O)[C@H](N)C[C@@H]2N)[C@H](N)C[C@@H]1O [tobramycin] | – | – | – | – | – | – | equal colony reduction
